pEC50, pKi: −log10 of the molar value. *1 amine or outer side, *2 acyl side, *3 side chain or, on linkers, in order; H or OH if unused. Where a SMILES comes first, the peptide text is derived from it. Side-chain parts run from the residue outwards. The star is where a group is joined. C18 diacid = O=C(O)CCCCCCCCCCCCCCCCC(=O)*; γGlu = O=C(O)[C@H](CCC(=O)[*:2])N[*:1]; Isovaleryl = CC(C)CC(=O)*; Ahx = NCCCCCC(=O)O
Key:
[1] = target: T1, Human Neuropeptide Y2 Receptor (Homo sapiens, UniProt P49146); assay: Radioligand binding competition assay (RLB); settings: Table 3, 125I-PYY(1-36) competition; read-out: Ki
T1 construct: purchased CHEMICON HTS066M
T1 sequence (P49146 1-381): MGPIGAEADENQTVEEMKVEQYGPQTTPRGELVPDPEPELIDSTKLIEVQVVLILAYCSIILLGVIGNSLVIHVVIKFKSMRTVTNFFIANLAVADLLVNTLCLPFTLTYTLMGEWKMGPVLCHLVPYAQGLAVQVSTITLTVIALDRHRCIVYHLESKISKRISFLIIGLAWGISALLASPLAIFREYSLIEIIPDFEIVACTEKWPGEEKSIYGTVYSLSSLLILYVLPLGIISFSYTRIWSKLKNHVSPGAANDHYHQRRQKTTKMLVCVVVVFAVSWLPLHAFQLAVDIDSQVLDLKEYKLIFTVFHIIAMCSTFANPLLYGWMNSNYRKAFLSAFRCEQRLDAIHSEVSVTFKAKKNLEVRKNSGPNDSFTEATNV
Method in brief: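 Receptor membranes, 0.5 μg/well; buffer 50 mM HEPES/5 mM MgCl2/1 mM CaCl2/0.2% ovalbumin, pH 7.4; 2 h RT, shaking. GF/C filtration, cold HEPES/500 mM NaCl wash, scintillation count. IC50 by nonlinear regression.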

[2] = target: T2, human NPY1 receptor (hY1R) (Homo sapiens, UniProt P25929); assay: HTRF cAMP Gi assay, hY1R; assay type: cell-based; settings: CHO-K1 cells
T2 construct: expressed in transfected cells; host or cells: CHO-K1
T2 sequence (P25929 1-384): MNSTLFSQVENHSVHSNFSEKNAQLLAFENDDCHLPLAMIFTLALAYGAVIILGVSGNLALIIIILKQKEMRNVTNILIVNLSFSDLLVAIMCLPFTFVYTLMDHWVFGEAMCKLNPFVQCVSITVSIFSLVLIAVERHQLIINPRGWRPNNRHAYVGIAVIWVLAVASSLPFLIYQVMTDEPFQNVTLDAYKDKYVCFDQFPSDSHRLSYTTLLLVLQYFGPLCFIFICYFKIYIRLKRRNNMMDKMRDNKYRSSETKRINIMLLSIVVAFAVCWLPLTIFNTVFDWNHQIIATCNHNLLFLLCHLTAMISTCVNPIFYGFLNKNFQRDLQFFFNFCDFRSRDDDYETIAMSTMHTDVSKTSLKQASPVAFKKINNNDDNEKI

[3] = target: T3, human NPY4 receptor (hY4R) (Homo sapiens, UniProt P50391); assay: HTRF cAMP Gi assay, hY4R; assay type: cell-based; settings: CHO-K1 cells
T3 construct: expressed in transfected cells; host or cells: CHO-K1
T3 sequence (P50391 whole entry): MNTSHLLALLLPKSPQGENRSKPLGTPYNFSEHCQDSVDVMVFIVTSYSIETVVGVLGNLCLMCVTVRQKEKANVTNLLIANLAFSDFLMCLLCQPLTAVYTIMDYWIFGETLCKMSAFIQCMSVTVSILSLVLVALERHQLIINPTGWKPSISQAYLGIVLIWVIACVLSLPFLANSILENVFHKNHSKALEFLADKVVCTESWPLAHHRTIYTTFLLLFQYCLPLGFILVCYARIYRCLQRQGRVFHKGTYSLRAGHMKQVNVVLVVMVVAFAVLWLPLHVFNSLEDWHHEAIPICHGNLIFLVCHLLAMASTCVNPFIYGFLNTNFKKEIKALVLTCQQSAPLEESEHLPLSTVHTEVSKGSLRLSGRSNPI
Procedure: Briefly, the production of intracellular cAMP will generate a competition between unlabeled cAMP and exogenously added d2-cAMP for anti-cAMP antibodies conjugated to cryptate. CHO-K1 cells stably expressing the human NPY1, NPY2, NPY4 and NPY5 receptors were used with the cells brought to life from a frozen stock immediately before assay performance. 2000 cells per well were applied for all four NPY receptor subtype assays. A 384-well format was used applying a total volume of 20 μl using 5 μl cells, 2.5 μl peptide agonist, 2.5 μl forskolin and 5 μl of each of the fluorophores. […] Concentration-response evaluation of compounds was performed with 11 concentrations of agonist peptides (covering 3 decades). EC50 values were calculated by nonlinear regression using sigmoid concentration-response with variable slope.

Solubility determination = settings: for Sol6: pH 6; for Sol7: pH 7
Method in brief: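 First, TFA-salt peptide was added to 0.1 M sodium diphosphate (pH 6.4 or 7.0) to 10 mg/ml and shaken 2 h at room temperature. Next, insoluble material was filtered off. Finally, filtrate and control, each 1 mg/ml in 50% acetonitrile, were compared by reversed-phase chromatography.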

[4] = target: T4, human NPY5 receptor (hY5R) (Homo sapiens, UniProt Q15761); assay: HTRF cAMP Gi assay, hY5R
T4 sequence (Q15761 1-445): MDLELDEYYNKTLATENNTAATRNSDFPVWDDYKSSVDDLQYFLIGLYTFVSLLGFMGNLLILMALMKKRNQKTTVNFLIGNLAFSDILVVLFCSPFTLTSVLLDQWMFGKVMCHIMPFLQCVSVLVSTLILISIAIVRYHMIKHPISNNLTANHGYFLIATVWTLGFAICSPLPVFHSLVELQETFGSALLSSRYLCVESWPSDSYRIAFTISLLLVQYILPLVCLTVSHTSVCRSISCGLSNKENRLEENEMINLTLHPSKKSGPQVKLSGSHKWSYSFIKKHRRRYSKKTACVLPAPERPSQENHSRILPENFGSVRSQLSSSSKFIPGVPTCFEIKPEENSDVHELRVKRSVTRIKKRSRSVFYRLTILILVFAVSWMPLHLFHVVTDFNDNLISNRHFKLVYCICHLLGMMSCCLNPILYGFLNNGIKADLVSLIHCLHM

Row | pKi [1] | pEC50 [2] | pEC50 [3] | Sol6 (Solubility determination) | Sol7 (Solubility determination) | pEC50 [4] | Compound
1 | 8.97 | < 5.30 | < 5.30 | 9.6 mg/mL | 10.0 mg/mL | < 5.30 | CC(C)CC(=O)N[C@@H](C)C(=O)N1CCC[C@H]1C(=O)N[C@@H](CCC(=O)O)C(=O)N[C@@H](CCCCNC(=O)CCCCCNC(=O)CC[C@H](NC(=O)CCCCCCCCCCCCCCCCC(=O)O)C(=O)O)C(=O)N1CCC[C@H]1C(=O)N[C@@H](CCC(=O)O)C(=O)N[C@@H](C)C(=O)N[C@@H](CC(=O)O)C(=O)N[C@@H](C)C(=O)N[C@H](C(=O)N1CCC[C@H]1C(=O)N[C@@H](CCC(=O)O)C(=O)N[C@@H](CCC(=O)O)C(=O)N[C@@H](CC(C)C)C(=O)N[C@@H](CCC(N)=O)C(=O)N[C@@H](CCCNC(=N)N)C(=O)N[C@@H](Cc1ccc(O)cc1)C(=O)N[C@@H](Cc1ccc(O)cc1)C(=O)N[C@H](C(=O)N[C@@H](C)C(=O)N[C@@H](CC(C)C)C(=O)N[C@@H](CCCNC(=N)N)C(=O)N[C@@H](Cc1c[nH]cn1)C(=O)N[C@@H](Cc1ccc(O)cc1)C(=O)N[C@@H](Cc1ccc(O)cc1)C(=O)N[C@@H](CC(N)=O)C(=O)N[C@@H](Cc1c[nH]c2ccccc12)C(=O)N[C@@H](CC(C)C)C(=O)N[C@H](C(=O)N[C@@H](CCCNC(=N)N)C(=O)N[C@@H](CCC(N)=O)C(=O)N[C@@H](CCCNC(=N)N)C(=O)N[C@@H](Cc1ccc(O)cc1)C(N)=O)[C@@H](C)O)C(C)C)[C@@H](C)O [Compound 136, N{alpha-4}-(3-methylbutanoyl)-N{epsilon-7}-(6-[(4S)-4-carboxy-4-(17-carboxyheptadecanamido)butanamido]hexanoyl)-[4A,7K,9E,10A,13T,18Q,22V,23A,28Y,30W,31L]-hPYY(4-36)]
2 | 9.19 | < 5.30 | < 5.30 | 9.1 mg/mL | 9.1 mg/mL | < 5.30 | CC[C@H](C)[C@H](NC(=O)[C@H](CCC(=O)O)NC(=O)[C@H](CCC(=O)O)NC(=O)[C@@H]1CCCN1C(=O)[C@@H](NC(=O)[C@H](C)NC(=O)[C@H](CC(=O)O)NC(=O)[C@H](C)NC(=O)[C@H](CCC(=O)O)NC(=O)[C@@H]1CCCN1C(=O)[C@H](CCCCNC(=O)CCCCCNC(=O)CC[C@H](NC(=O)CCCCCCCCCCCCCCCCC(=O)O)C(=O)O)NC(=O)[C@H](CCC(=O)O)NC(=O)[C@@H]1CCCN1C(=O)[C@H](C)NC(=O)CC(C)C)[C@@H](C)O)C(=O)N[C@@H](CCC(N)=O)C(=O)N[C@@H](CCCNC(=N)N)C(=O)N[C@@H](Cc1ccc(O)cc1)C(=O)N[C@@H](Cc1ccc(O)cc1)C(=O)N[C@H](C(=O)N[C@@H](C)C(=O)N[C@@H](CC(C)C)C(=O)N[C@@H](CCCNC(=N)N)C(=O)N[C@@H](Cc1c[nH]cn1)C(=O)N[C@@H](Cc1ccc(O)cc1)C(=O)N[C@@H](Cc1ccc(O)cc1)C(=O)N[C@@H](CC(N)=O)C(=O)N[C@@H](Cc1c[nH]c2ccccc12)C(=O)N[C@@H](CC(C)C)C(=O)N[C@H](C(=O)N[C@@H](CCCNC(=N)N)C(=O)N[C@@H](CCC(N)=O)C(=O)N[C@@H](CCCNC(=N)N)C(=O)N[C@@H](Cc1ccc(O)cc1)C(N)=O)[C@@H](C)O)C(C)C [Compound 184, N{alpha-4}-(3-methylbutanoyl)-N{epsilon-7}-(6-[(4S)-4-carboxy-4-(17-carboxyheptadecanamido)butanamido]hexanoyl)-[4A,7K,9E,10A,13T,17I,18Q,22V,23A,28Y,30W,31L]-hPYY(4-36)]
3 | 8.85 | < 5.30 | < 5.30 | 8.9 mg/mL | 8.7 mg/mL | < 5.30 | CC[C@H](C)[C@H](NC(=O)[C@H](Cc1ccc(O)cc1)NC(=O)[C@H](Cc1ccc(O)cc1)NC(=O)[C@H](CCCNC(=N)N)NC(=O)[C@H](CCC(N)=O)NC(=O)[C@@H](NC(=O)[C@H](CCC(=O)O)NC(=O)[C@H](CCC(=O)O)NC(=O)[C@@H]1CCCN1C(=O)[C@H](CO)NC(=O)[C@H](C)NC(=O)[C@H](CC(=O)O)NC(=O)[C@H](C)NC(=O)[C@H](CCC(=O)O)NC(=O)[C@@H]1CCCN1C(=O)[C@H](CCCCNC(=O)CCCCCNC(=O)CC[C@H](NC(=O)CCCCCCCCCCCCCCCCC(=O)O)C(=O)O)NC(=O)[C@H](CCC(=O)O)NC(=O)[C@@H]1CCCN1C(=O)[C@H](C)NC(=O)CC(C)C)[C@@H](C)CC)C(=O)N[C@@H](CO)C(=O)N[C@@H](CC(C)C)C(=O)N[C@@H](CCCNC(=N)N)C(=O)N[C@@H](Cc1c[nH]cn1)C(=O)N[C@@H](Cc1ccc(O)cc1)C(=O)N[C@@H](Cc1ccc(O)cc1)C(=O)N[C@@H](CC(N)=O)C(=O)N[C@@H](Cc1c[nH]c2ccccc12)C(=O)N[C@@H](CC(C)C)C(=O)N[C@H](C(=O)N[C@@H](CCCNC(=N)N)C(=O)N[C@@H](CCC(N)=O)C(=O)N[C@@H](CCCNC(=N)N)C(=O)N[C@@H](Cc1ccc(O)cc1)C(N)=O)[C@@H](C)O [Compound 11, N{alpha-4}-(3-methylbutanoyl)-N{epsilon-7}-(6-[(4S)-4-carboxy-4-(17-carboxyheptadecanamido)butanamido]hexanoyl)[4A,7K,9E,10A,17I,18Q,22I,28Y,30W,31L]-hPYY(4-36)] (Isovaleryl-APEK([Ahx-γGlu-C18 diacid])PEADASPEEIQRYYISLRHYYNWLTRQRY-NH2)
4 | 9.00 | < 5.30 | < 5.30 | 10.0 mg/mL | 9.5 mg/mL | < 5.30 | CC[C@H](C)[C@H](NC(=O)[C@H](CCC(=O)O)NC(=O)[C@H](CCC(=O)O)NC(=O)[C@@H]1CCCN1C(=O)[C@H](CCC(=O)O)NC(=O)[C@H](C)NC(=O)[C@H](CC(=O)O)NC(=O)[C@H](CCC(=O)O)NC(=O)[C@@H]1CCCN1C(=O)[C@@H]1CCCN1C(=O)[C@H](CCCCNC(=O)CCCCCNC(=O)CC[C@H](NC(=O)CCCCCCCCCCCCCCCCC(=O)O)C(=O)O)NC(=O)[C@H](CCC(=O)O)NC(=O)[C@@H]1CCCN1C(=O)[C@H](C)NC(=O)CC(C)C)C(=O)N[C@@H](CCC(N)=O)C(=O)N[C@@H](CCCNC(=N)N)C(=O)N[C@@H](Cc1ccc(O)cc1)C(=O)N[C@@H](Cc1ccc(O)cc1)C(=O)N[C@H](C(=O)N[C@@H](CO)C(=O)N[C@@H](CC(C)C)C(=O)N[C@@H](CCCNC(=N)N)C(=O)N[C@@H](Cc1c[nH]cn1)C(=O)N[C@@H](Cc1ccc(O)cc1)C(=O)N[C@@H](Cc1ccc(O)cc1)C(=O)N[C@@H](CC(N)=O)C(=O)N[C@@H](Cc1c[nH]c2ccccc12)C(=O)N[C@@H](CC(C)C)C(=O)N[C@H](C(=O)N[C@@H](CCCNC(=N)N)C(=O)N[C@@H](CCC(N)=O)C(=O)N[C@@H](CCCNC(=N)N)C(=O)N[C@@H](Cc1ccc(O)cc1)C(N)=O)[C@@H](C)O)C(C)C [Compound 118, N{alpha-4}-(3-methylbutanoyl)-N{epsilon-7}-(6-[(4S)-4-carboxy-4-(17-carboxyheptadecanamido)butanamido]hexanoyl)-[4A,7K,9P,13E,17I,18Q,22V,28Y,30W,31L]-hPYY(4-36)]

From patent US12391737B2, “Soluble NPY2 receptor agonists” (Boehringer Ingelheim International GmbH, priority 2020, dated 2025)
